Measurements: PubChem BioAssay (NCI)
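Method: 48-hour compound exposure of cells in 96-well plates, five concentrations, linear interpolation of endpoints. GI50 marks 50% less growth. TGI: total growth inhibition.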

Legend:
Experiment in all cases: NCI tumour cell line growth inhibition, 48 h
SNB-19 CNS = system: SNB-19 CNS
UACC-62 melanoma = system: UACC-62 melanoma
MOLT-4 leukemia = system: MOLT-4 leukemia
HS 578T breast = system: HS 578T breast
NCI-H460 lung = system: NCI-H460 lung
HCT-15 colon = system: HCT-15 colon
BT-549 breast = system: BT-549 breast
CCRF-CEM leukemia = system: CCRF-CEM leukemia
T-47D breast = system: T-47D breast
SK-MEL-28 melanoma = system: SK-MEL-28 melanoma
MALME-3M melanoma = system: MALME-3M melanoma
DU-145 prostate = system: DU-145 prostate
SR leukemia = system: SR leukemia
SW-620 colon = system: SW-620 colon
KM12 colon = system: KM12 colon
K-562 leukemia = system: K-562 leukemia
MDA-MB-435 = system: MDA-MB-435
SK-MEL-2 melanoma = system: SK-MEL-2 melanoma
OVCAR-4 ovarian = system: OVCAR-4 ovarian
HT29 colon = system: HT29 colon
HCC-2998 colon = system: HCC-2998 colon
786-0 renal = system: 786-0 renal
U251 CNS = system: U251 CNS
HL-60(TB) leukemia = system: HL-60(TB) leukemia
TK-10 renal = system: TK-10 renal
NCI-H23 lung = system: NCI-H23 lung
SF-295 CNS = system: SF-295 CNS
OVCAR-5 ovarian = system: OVCAR-5 ovarian
IGROV1 ovarian = system: IGROV1 ovarian
UO-31 renal = system: UO-31 renal
MCF7 breast = system: MCF7 breast
SNB-75 CNS = system: SNB-75 CNS
SF-268 CNS = system: SF-268 CNS
NCI-H522 lung = system: NCI-H522 lung
UACC-257 melanoma = system: UACC-257 melanoma
SN12C renal = system: SN12C renal
A498 renal = system: A498 renal
HOP-62 NSCLC = system: HOP-62 NSCLC
NCI-H226 lung = system: NCI-H226 lung
LOX IMVI melanoma = system: LOX IMVI melanoma
PC-3 prostate = system: PC-3 prostate
HCT-116 colon = system: HCT-116 colon
COLO 205 colon = system: COLO 205 colon
HOP-92 NSCLC = system: HOP-92 NSCLC
SK-OV-3 ovarian = system: SK-OV-3 ovarian
SK-MEL-5 melanoma = system: SK-MEL-5 melanoma
RXF 393 renal = system: RXF 393 renal
OVCAR-3 ovarian = system: OVCAR-3 ovarian
OVCAR-8 ovarian = system: OVCAR-8 ovarian
RPMI-8226 leukemia = system: RPMI-8226 leukemia
NCI/ADR-RES ovarian = system: NCI/ADR-RES ovarian
MDA-MB-231 breast = system: MDA-MB-231 breast
EKVX NSCLC = system: EKVX NSCLC
A549 NSCLC = system: A549 NSCLC
M14 melanoma = system: M14 melanoma
SF-539 CNS = system: SF-539 CNS

CN(C)CCCOc1ccc(OCCCN(C)C)c2c1C(=O)c1ccccc1C2=O
GI50 (SNB-19 CNS): 941 nM
TGI (SNB-19 CNS): 10000 nM
GI50 (UACC-62 melanoma): 1890 nM
TGI (UACC-62 melanoma): 4240 nM
GI50 (MOLT-4 leukemia): 378 nM
TGI (MOLT-4 leukemia): 5990 nM
GI50 (HS 578T breast): 2050 nM
TGI (HS 578T breast): 10500 nM
GI50 (NCI-H460 lung): 514 nM
TGI (NCI-H460 lung): 11600 nM
GI50 (HCT-15 colon): 5450 nM
TGI (HCT-15 colon): 61500 nM
GI50 (BT-549 breast): 1950 nM
TGI (BT-549 breast): 4970 nM
GI50 (CCRF-CEM leukemia): 930 nM
TGI (CCRF-CEM leukemia): 6950 nM
GI50 (T-47D breast): 1360 nM
TGI (T-47D breast): 8300 nM
GI50 (SK-MEL-28 melanoma): 2010 nM
TGI (SK-MEL-28 melanoma): 4450 nM
GI50 (MALME-3M melanoma): 1110 nM
TGI (MALME-3M melanoma): 2730 nM
GI50 (DU-145 prostate): 1140 nM
TGI (DU-145 prostate): 11800 nM
GI50 (SR leukemia): 524 nM
TGI (SR leukemia): 5050 nM
GI50 (SW-620 colon): 532 nM
TGI (SW-620 colon): 11000 nM
GI50 (KM12 colon): 961 nM
TGI (KM12 colon): 10600 nM
GI50 (K-562 leukemia): 706 nM
TGI (K-562 leukemia): 6420 nM
GI50 (MDA-MB-435): 1590 nM
TGI (MDA-MB-435): 3190 nM
GI50 (SK-MEL-2 melanoma): 1260 nM
TGI (SK-MEL-2 melanoma): 3340 nM
GI50 (OVCAR-4 ovarian): 1400 nM
TGI (OVCAR-4 ovarian): 5180 nM
GI50 (HT29 colon): 382 nM
TGI (HT29 colon): 3580 nM
GI50 (HCC-2998 colon): 1260 nM
TGI (HCC-2998 colon): 6520 nM
GI50 (786-0 renal): 1770 nM
TGI (786-0 renal): 10300 nM
GI50 (U251 CNS): 682 nM
TGI (U251 CNS): 9020 nM
GI50 (HL-60(TB) leukemia): 2140 nM
TGI (HL-60(TB) leukemia): 6770 nM
GI50 (TK-10 renal): 1710 nM
TGI (TK-10 renal): 12500 nM
GI50 (NCI-H23 lung): 1020 nM
TGI (NCI-H23 lung): 4270 nM
GI50 (SF-295 CNS): 1710 nM
TGI (SF-295 CNS): 10600 nM
GI50 (OVCAR-5 ovarian): 962 nM
TGI (OVCAR-5 ovarian): 5290 nM
GI50 (IGROV1 ovarian): 1780 nM
TGI (IGROV1 ovarian): 14200 nM
GI50 (UO-31 renal): 2640 nM
TGI (UO-31 renal): 18300 nM
GI50 (MCF7 breast): 388 nM
TGI (MCF7 breast): 10600 nM
GI50 (SNB-75 CNS): 1510 nM
TGI (SNB-75 CNS): 3720 nM
GI50 (SF-268 CNS): 1320 nM
TGI (SF-268 CNS): 7280 nM
GI50 (NCI-H522 lung): 381 nM
TGI (NCI-H522 lung): 2210 nM
GI50 (UACC-257 melanoma): 2380 nM
TGI (UACC-257 melanoma): 5420 nM
GI50 (SN12C renal): 517 nM
TGI (SN12C renal): 11900 nM
GI50 (A498 renal): 1380 nM
TGI (A498 renal): 3320 nM
GI50 (HOP-62 NSCLC): 634 nM
TGI (HOP-62 NSCLC): 3540 nM
GI50 (NCI-H226 lung): 1020 nM
TGI (NCI-H226 lung): 5540 nM
GI50 (LOX IMVI melanoma): 810 nM
TGI (LOX IMVI melanoma): 10200 nM
GI50 (PC-3 prostate): 1480 nM
TGI (PC-3 prostate): 5150 nM
GI50 (HCT-116 colon): 379 nM
TGI (HCT-116 colon): 10300 nM
GI50 (COLO 205 colon): 379 nM
TGI (COLO 205 colon): 1820 nM
GI50 (HOP-92 NSCLC): 572 nM
TGI (HOP-92 NSCLC): 4130 nM
GI50 (SK-OV-3 ovarian): 988 nM
TGI (SK-OV-3 ovarian): 4740 nM
GI50 (SK-MEL-5 melanoma): 1860 nM
TGI (SK-MEL-5 melanoma): 3560 nM
GI50 (RXF 393 renal): 1320 nM
TGI (RXF 393 renal): 3690 nM
GI50 (OVCAR-3 ovarian): 1930 nM
TGI (OVCAR-3 ovarian): 8260 nM
GI50 (OVCAR-8 ovarian): 1140 nM
TGI (OVCAR-8 ovarian): 12000 nM
GI50 (RPMI-8226 leukemia): 2050 nM
TGI (RPMI-8226 leukemia): 6550 nM
GI50 (NCI/ADR-RES ovarian): 33600 nM
TGI (NCI/ADR-RES ovarian): > 100000 nM
GI50 (MDA-MB-231 breast): 908 nM
TGI (MDA-MB-231 breast): 4630 nM
GI50 (EKVX NSCLC): 2300 nM
TGI (EKVX NSCLC): 11000 nM
GI50 (A549 NSCLC): 388 nM
TGI (A549 NSCLC): 11900 nM
GI50 (M14 melanoma): 1600 nM
TGI (M14 melanoma): 3490 nM
GI50 (SF-539 CNS): 1570 nM
TGI (SF-539 CNS): 4110 nM
